In patent publication US20110098269A1, “Substituted Pyridazinone Derivatives as Histamine-3 (H3) Receptor Ligands” (Cephalon, Inc., priority 2008, published 2011):
Where a name gives a salt, the structure may show the parent alone. Each block holds one compound with its values, some of them ahead of it.

Key:
human H3 receptor = target: T1, human H3 receptor (Homo sapiens, UniProt Q9Y5N1); experiment: Human H3 radioligand binding ([3H]-N-alpha-methylhistamine, CHO cell membranes); conditions: Human H3 binding constant, class symbols; read-out: hH3 Ki
T1 construct: expressed in transfected cells
T1 sequence (Q9Y5N1 whole entry): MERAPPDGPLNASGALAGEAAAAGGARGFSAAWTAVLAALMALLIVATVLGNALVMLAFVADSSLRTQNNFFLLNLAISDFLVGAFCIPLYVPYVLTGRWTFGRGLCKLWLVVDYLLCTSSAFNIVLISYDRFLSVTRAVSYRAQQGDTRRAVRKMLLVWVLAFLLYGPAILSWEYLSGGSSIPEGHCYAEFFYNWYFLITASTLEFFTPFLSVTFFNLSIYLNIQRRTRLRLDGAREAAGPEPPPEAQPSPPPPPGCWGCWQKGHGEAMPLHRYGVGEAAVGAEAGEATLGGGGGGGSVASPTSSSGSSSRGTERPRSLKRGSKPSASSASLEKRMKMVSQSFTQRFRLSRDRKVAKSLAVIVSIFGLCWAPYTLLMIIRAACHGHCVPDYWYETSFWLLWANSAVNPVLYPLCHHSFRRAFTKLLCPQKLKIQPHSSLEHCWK
Protocol: (§1) Methods: CHO cells stably expressing the human H3 receptor (GenBank: NM_007232) were harvested and cell pellets were frozen (−80° C.). Cell pellets were resuspended in 5 mM Tris-HCl, pH 7.5 with 5 nM EDTA and a cocktail of protease inhibitors (Complete Protease Inhibitor Tablets, Roche Diagnostics). Cells were disrupted using a polytron cell homogenizer and the suspension was centrifuged at 1000×g for 10 minutes at 4° C. The pellet was discarded and the supernatant centrifuged at 40,000×g for 30 min at 4° C. This membrane pellet was washed in membrane buffer containing 50 mM Tris-HCl, pH 7.5 with 0.6 mM EDTA, 5 mM MgCl2 and protease inhibitors, recentrifuged as above and the final pellet resuspended in membrane buffer plus 250 mM sucrose and frozen at −80° C.
(§2) Radioligand Binding. Membranes were resuspended in 50 mM Tris HCl (pH 7.4), 5 mM MgCl2, 0.1% BSA. The membrane suspensions (10 μg protein per well) were incubated in a 96 well microtiter plate with [^3H]-N-alpha-methylhistamine (approximately 1 nM final concentration), test compounds at various concentrations (0.01 nM-30 μM) and scintillation proximity beads (Perkin Elmer, FlashBlueGPCR Scintillating Beads) in a final volume of 80 μl for 4 hours at room temperature, protected from light. Non-specific binding was determined in the presence of 10 μM clobenpropit. Radioligand bound to receptor, and therefore in proximity to the scintillation beads, was measured using a MicroBeta scintillation counter.

[1] = target: T2, rat histamine H3 receptor (Rattus norvegicus, UniProt Q9QYN8); experiment: Rat H3 radioligand binding ([3H]-N-alpha-methylhistamine, CHO-A3 cell membranes); conditions: Rat H3 binding constant, class symbols; read-out: rH3 Ki
T2 construct: encoding the entire 445-amino-acid rat histamine H3 receptor; expressed in transfected cells
T2 sequence (Q9QYN8 whole entry): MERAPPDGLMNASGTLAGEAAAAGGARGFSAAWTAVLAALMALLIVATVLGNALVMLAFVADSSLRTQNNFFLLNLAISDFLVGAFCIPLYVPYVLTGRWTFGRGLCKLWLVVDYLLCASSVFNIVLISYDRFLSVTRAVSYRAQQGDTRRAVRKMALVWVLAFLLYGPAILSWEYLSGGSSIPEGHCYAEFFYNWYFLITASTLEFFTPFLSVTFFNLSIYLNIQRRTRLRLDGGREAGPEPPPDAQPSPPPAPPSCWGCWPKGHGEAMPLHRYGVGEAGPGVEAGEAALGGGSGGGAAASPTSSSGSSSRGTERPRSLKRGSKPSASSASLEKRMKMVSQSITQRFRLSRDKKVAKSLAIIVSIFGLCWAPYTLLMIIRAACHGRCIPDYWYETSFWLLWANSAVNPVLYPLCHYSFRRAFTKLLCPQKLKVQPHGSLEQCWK
Source text: as §1, with “Cell line development and membrane preparation. The rat” for “Methods: CHO cells stably expressing the human”, “cDNA was PCR amplified from reverse-transcribed RNA pooled from rat thalamus, hypothalamus, striatum and prefrontal cortex with a sequence corresponding to by #338-1672 of Genbank file #NM_053506, encoding the entire 445-amino-acid rat histamine H3 receptor. This was engineered into the pIRES-neo3 mammalian expression vector, which was stably transfected into the CHO-A3 cell line (Euroscreen, Belgium), followed by clonal selection by limiting dilution. Cells” for “(GenBank: NM_007232)”
as §2

- melting point: 295 to 298 °C
SMILES: C[C@@H]1CCCN1CCc1ccc2cc(-c3ccc(=O)[nH]n3)ccc2c1 (as salt: HCl) [Example 70, 6-{6-[2-((R)-2-Methyl-pyrrolidin-1-yl)-ethyl]-naphthalen-2-yl}-2H-pyridazin-3-one]

- Ki (human H3 receptor): < 100 nM
- Ki [1]: < 100 nM
SMILES: C[C@@H]1CCCN1CCc1ccc(-c2ccc(=O)n(-c3ccc(Cl)cc3)n2)cc1 [Example 52]

- Ki (human H3 receptor): < 100 nM
- Ki [1]: < 100 nM
SMILES: C[C@@H]1CCCN1CCc1ccc(-c2ccc(=O)n(Cc3ccccc3)n2)cc1 [Example 53]

- Ki (human H3 receptor): 100 to 1000 nM
- Ki [1]: 100 to 1000 nM
SMILES: CN(CCc1ccc(-c2ccc(=O)n(C)n2)cc1)C1CCCCC1 [Example 55]

- Ki (human H3 receptor): 100 to 1000 nM
- Ki [1]: 100 to 1000 nM
SMILES: CC(=O)N1CCN(CCc2ccc(-c3ccc(=O)n(C)n3)cc2)CC1 [Example 58]

- Ki (human H3 receptor): 100 to 1000 nM
- Ki [1]: 100 to 1000 nM
SMILES: Cn1nc(-c2ccc(CCN3CCC3)cc2)ccc1=O [Example 60]

- Ki (human H3 receptor): < 100 nM
- Ki [1]: 100 to 1000 nM
SMILES: CN(CCc1ccc(-c2ccc(=O)n(C)n2)cc1)C1CCC1 [Example 61]

- Ki (human H3 receptor): 100 to 1000 nM
- Ki [1]: 100 to 1000 nM
SMILES: CCN(CCc1ccc(-c2ccc(=O)n(C)n2)cc1)C1CCC1 [Example 62]

- Ki (human H3 receptor): < 100 nM
- Ki [1]: < 100 nM
SMILES: C[C@@H]1CCCN1CCc1ccc(-c2ccc(=O)n(C)n2)cc1 [Example 63]

- Ki (human H3 receptor): 100 to 1000 nM
- Ki [1]: 100 to 1000 nM
SMILES: Cn1nc(-c2ccc(CCN3CCCCC3)cc2)ccc1=O [Example 64]

- Ki (human H3 receptor): 100 to 1000 nM
- Ki [1]: 100 to 1000 nM
SMILES: O=c1ccc(-c2ccc(CCN3CCCCC3)cc2)nn1-c1ccccc1 [Example 65]

- Ki (human H3 receptor): < 100 nM
- Ki [1]: < 100 nM
SMILES: C[C@@H]1CCCN1CCc1ccc(-c2ccc(=O)n(-c3ccccc3)n2)cc1 [Example 66]

- Ki (human H3 receptor): < 100 nM
- Ki [1]: < 100 nM
SMILES: C[C@@H]1CCCN1CCc1ccc(-c2ccc(=O)n(-c3ccc(F)cc3)n2)cc1 [Example 67]

- Ki (human H3 receptor): > 1000 nM
- Ki [1]: > 1000 nM
SMILES: O=c1ccc(-c2ccc(CCN3CCOCC3)cc2)nn1-c1ccccc1 [Example 68]

- Ki (human H3 receptor): < 100 nM
- Ki [1]: 100 to 1000 nM
SMILES: C[C@@H]1CCCN1CCc1ccc(-c2ccc(=O)n(-c3ccccn3)n2)cc1 [Example 69]

The next lines start with the compound.

SMILES: CC(C)N1CCc2ccc(-c3ccc(=O)n(C)n3)cc2CC1 (as salt: HCl) [Example 22, 6-(3-Isopropyl-2,3,4,5-tetrahydro-1H-benzo[d]azepin-7-yl)-2-methyl-2H-pyridazin-3-one. HCl]
- melting point: 254 to 256 °C

SMILES: Cn1nc(-c2ccc3c(c2)CCN(C2CCCC2)CC3)ccc1=O (as salt: HCl) [Example 23, 6-(3-Cyclopentyl-2,3,4,5-tetrahydro-1H-benzo[d]azepin-7-yl)-2-methyl-2H-pyridazin-3-one. HCl]
- melting point: 239 to 240 °C

SMILES: O=C1NN=C(c2ccc3c(c2)CCNCC3)C2CC12 (stereo not shown) (as salt: HCl) [Example 39, 5-(2,3,4,5-Tetrahydro-1H-benzo[d]azepin-7-yl)-3,4-diaza-bicyclo[4.1.0]hept-4-en-2-one]
- melting point: 148 to 151 °C

SMILES: O=C1NN=C(c2ccc3c(c2)CCN(C2CCC2)CC3)C2CC12 (stereo not shown) (as salt: HCl) [Example 40, 5-(3-Cyclobutyl-2,3,4,5-tetrahydro-1H-benzo[d]azepin-7-yl)-3,4-diaza-bicyclo[4.1.0]hept-4-en-2-one]
- melting point: 129 to 132 °C

SMILES: O=c1ccc(-c2ccc3c(c2)CCN(C2CCC2)CC3)n[nH]1 [Example 2, 6-(3-Cyclobutyl-2,3,4,5-tetrahydro-1H-benzo[d]azepin-7-yl)-2H-pyridazin-3-one]
- Ki (human H3 receptor): < 100 nM
- melting point: 250 to 251 °C
- Ki [1]: < 100 nM

SMILES: CC(C)N1N=C(c2ccc3c(c2)CCN(C2CCC2)CC3)CCC1=O [Example 4, 6-(3-Cyclobutyl-2,3,4,5-tetrahydro-1H-benzo[d]azepin-7-yl)-2-isopropyl-4,5-dihydro-2H-pyridazin-3-one]
- Ki (human H3 receptor): < 100 nM
- melting point: 140 to 141 °C
- Ki [1]: 100 to 1000 nM

SMILES: CC(C)N1CCc2ccc(C3=NN(C(C)C)C(=O)CC3)cc2CC1 [Example 6, 2-Isopropyl-6-(3-isopropyl-2,3,4,5-tetrahydro-1H-benzo[d]azepin-7-yl)-4,5-dihydro-2H-pyridazin-3-one]
- Ki (human H3 receptor): 100 to 1000 nM
- melting point: 125 to 126 °C
- Ki [1]: 100 to 1000 nM

SMILES: CC(C)n1nc(-c2ccc3c(c2)CCN(C2CCC2)CC3)ccc1=O [Example 7, 6-(3-Cyclobutyl-2,3,4,5-tetrahydro-1H-benzo[d]azepin-7-yl)-2-isopropyl-2H-pyridazin-3-one]
- Ki (human H3 receptor): < 100 nM
- melting point: 199 to 200 °C
- Ki [1]: 100 to 1000 nM

SMILES: CC(C)N1CCc2ccc(-c3ccc(=O)n(C(C)C)n3)cc2CC1 [Example 8, 2-Isopropyl-6-(3-isopropyl-2,3,4,5-tetrahydro-1H-benzo[d]azepin-7-yl)-2H-pyridazin-3-one]
- Ki (human H3 receptor): 100 to 1000 nM
- melting point: 244 to 245 °C
- Ki [1]: 100 to 1000 nM

SMILES: O=C1CCC(c2ccc3c(c2)CCN(C2CCC2)CC3)=NN1 [Example 9, 6-(3-Cyclobutyl-2,3,4,5-tetrahydro-1H-benzo[d]azepin-7-yl)-4,5-dihydro-2H-pyridazin-3-one]
- Ki (human H3 receptor): < 100 nM
- melting point: 178 to 179 °C
- Ki [1]: 100 to 1000 nM

SMILES: O=C1CCC(c2ccc3c(c2)CCN(C2CCC2)CC3)=NN1CC(F)(F)F [Example 10, 6-(3-Cyclobutyl-2,3,4,5-tetrahydro-1H-benzo[d]azepin-7-yl)-2-(2,2,2-trifluoro-ethyl)-4,5-dihydro-2H-pyridazin-3-one]
- Ki (human H3 receptor): < 100 nM
- melting point: 139 to 140 °C
- Ki [1]: < 100 nM

SMILES: O=c1ccc(-c2ccc3c(c2)CCN(C2CCC2)CC3)nn1CC(F)(F)F [Example 11, 6-(3-Cyclobutyl-2,3,4,5-tetrahydro-1H-benzo[d]azepin-7-yl)-2-(2,2,2-trifluoro-ethyl)-2H-pyridazin-3-one]
- Ki (human H3 receptor): < 100 nM
- melting point: 142 to 143 °C
- Ki [1]: < 100 nM

SMILES: CCN1N=C(c2ccc3c(c2)CCN(C2CCC2)CC3)CCC1=O [Example 12, 6-(3-Cyclobutyl-2,3,4,5-tetrahydro-1H-benzo[d]azepin-7-yl)-2-ethyl-4,5-dihydro-2H-pyridazin-3-one]
- Ki (human H3 receptor): < 100 nM
- melting point: 97 to 98 °C
- Ki [1]: < 100 nM

SMILES: CCCCN1N=C(c2ccc3c(c2)CCN(C2CCC2)CC3)CCC1=O [Example 13, 2-Butyl-6-(3-cyclobutyl-2,3,4,5-tetrahydro-1H-benzo[d]azepin-7-yl)-4,5-dihydro-2H-pyridazin-3-one]
- Ki (human H3 receptor): < 100 nM
- melting point: 104 to 105 °C
- Ki [1]: < 100 nM

SMILES: O=C1NN=C(c2ccc3c(c2)CCN(C2CCC2)CC3)C2CC12 (stereo not shown) [Example 40, 5-(3-Cyclobutyl-2,3,4,5-tetrahydro-1H-benzo[d]azepin-7-yl)-3,4-diaza-bicyclo[4.1.0]hept-4-en-2-one]
- Ki (human H3 receptor): < 100 nM
- Ki [1]: 100 to 1000 nM

SMILES: O=C1NN=C(c2ccc3c(c2)CCNCC3)C2CCCC12 (stereo not shown) [Example 41, 4-(2,3,4,5-Tetrahydro-1H-benzo[d]azepin-7-yl)-2,4-a,5,6,7,7a-hexahydro-cyclopenta[d]pyridazin-1-one]
- Ki (human H3 receptor): 100 to 1000 nM
- Ki [1]: 100 to 1000 nM

SMILES: Cn1nc(-c2ccc(C(=O)N3CCC[C@H]3CN3CCCC3)cc2)ccc1=O [Example 45, 2-Methyl-6-[4-((S)-2-pyrrolidin-1-ylmethyl-pyrrolidine-1-carbonyl)-phenyl]-2H-pyridazin-3-one]
- Ki (human H3 receptor): < 100 nM
- Ki [1]: < 100 nM

SMILES: Cn1nc(-c2ccc(C(=O)N3CCN4CCC[C@H]4C3)cc2)ccc1=O [Example 48, 6-[4-((S)-Hexahydro-pyrrolo[1,2-a]pyrazine-2-carbonyl)-phenyl]-2-methyl-2H-pyridazin-3-one]
- Ki (human H3 receptor): 100 to 1000 nM
- Ki [1]: 100 to 1000 nM

SMILES: O=C(c1ccc(-c2ccc(=O)n(-c3ccc(F)cc3)n2)cc1)N1CCC[C@H]1CN1CCCC1 [Example 49, 2-(4-Fluoro-phenyl)-6-[4-((S)-2-pyrrolidin-1-ylmethyl-pyrrolidine-1-carbonyl)-phenyl]-2H-pyridazin-3-one]
- Ki (human H3 receptor): < 100 nM
- Ki [1]: 100 to 1000 nM

SMILES: CC(C)N(C)CCc1ccc(-c2ccc(=O)n(C)n2)cc1 [Example 54]
- Ki (human H3 receptor): 100 to 1000 nM
- Ki [1]: 100 to 1000 nM

SMILES: CCN(CC)CCc1ccc(-c2ccc(=O)n(C)n2)cc1 [Example 56]
- Ki (human H3 receptor): 100 to 1000 nM
- Ki [1]: 100 to 1000 nM

SMILES: CCNCCc1ccc(-c2ccc(=O)n(C)n2)cc1 [Example 57]
- Ki (human H3 receptor): 100 to 1000 nM
- Ki [1]: 100 to 1000 nM
